Earlier results as cited in patent US6991777B2, “Methods for in vivo evaluation of physiological conditions and/or organ or system function including methods to evaluate cardiopulmonary disorders such as chronic heart failure using polarized 129 Xe” (Medi-Physics, Inc., priority 2001, dated 2006).

Columns and labels:
[1] = dogs, whole lung
[2] = after inhalation into the lungs

SMILES: [Xe] [polarized ^129Xe, Xenon-129]
- time constant τ (uptake and/or dissolved gas-exchange transit time), blood compartment ([1]; blood compartment): ~70 ms
- time constant τ (uptake and/or dissolved gas-exchange transit time), tissue compartment ([1]; tissue compartment): about 61 ms
- diffusion constant of xenon in water: about 2×10^−5 cm^2/s
- fraction of inhaled gas that transits into the pulmonary blood [2]: roughly 0.3 % per/second
- time until Xe begins to dissolve into the pulmonary blood stream [2]: under 100 ms
